Here are results for 45 sequences from PMC12669278, “VDAC1-interacting proteins: binding site mapping and their derived peptides induce apoptosis and multifaceted cellular effects” (Apoptosis, 2025).

The target of the test is purified VDAC1 (Homo sapiens, UniProt P21796). Kind of test: Glass-bound peptide array probed with purified VDAC1 and anti-VDAC1 antibodies. The format is binding. Also on record: key: +: low; ++: medium; +++: high. Conditions: glass-bound peptide array incubated 4 h with purified VDAC1 (64 nM), chemiluminescence; for Spot intensity, detected using anti-N-terminus VDAC1: antibody against VDAC1 N-terminus; for Spot intensity, detected using anti-VDAC1 internal sequence: antibody against VDAC1 amino acids 150-250. The protocol: A customized peptide array was produced by INTAVIS Peptide Services (GmbH & Co. KG, Tübingen, Germany). It comprised 768 peptide sequences derived from 19 VDAC1-interacting proteins that were arrayed on a glass slide. Each peptide was composed of 25 amino acids with an overlap of 15 amino acids with the peptides before and following it.
The interaction of purified VDAC1 with glass-bound peptide arrays was assessed by washing the slide three times, 10 min each, with TBST (150 mM NaCl, 50 mM Tris/HCl, pH 7.4, 0.1% Tween-20), followed by overnight incubation with blocking buffer (TBS, pH 7.8, containing low-fat dry milk, 2.5%, w/v) at 4 °C. Then slides were incubated with purified VDAC1 in protein-interacting buffer (20 mM HEPES, 100 mM KCl, pH,7.4, PBS) for 4 h at room temperature (RT). After washing, with TBST, slides were incubated overnight at 4 °C with anti-VDAC1 antibody against a sequence of 150–250 amino acids or against the VDAC1-N-terminus. Slides were then washed with TBST, followed by the appropriate secondary anti-HRP conjugated antibody for 2 h at RT. They were washed again with TBST and developed using enhanced chemiluminescence EZ-ECL (Biological Industries), according to the manufacturer’s instructions. The signal was captured in the dark using FUSION-FX (Vilber Lourmat) software.

Chain of purified VDAC1 (P21796 whole entry, species assumed, the tested form may be a part): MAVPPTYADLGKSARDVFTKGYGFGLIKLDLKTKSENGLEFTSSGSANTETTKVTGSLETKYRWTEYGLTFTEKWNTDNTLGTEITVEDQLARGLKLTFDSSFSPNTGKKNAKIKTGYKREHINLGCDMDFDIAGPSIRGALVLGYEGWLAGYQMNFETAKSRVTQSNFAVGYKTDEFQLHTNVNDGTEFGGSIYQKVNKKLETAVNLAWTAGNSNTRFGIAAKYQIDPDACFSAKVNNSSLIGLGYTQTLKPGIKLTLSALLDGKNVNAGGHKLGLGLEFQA

Consider “GRTWNDPSVQQDIKFLPFKVVEKKT [2K5, array peptide from BiP1]”, for which the “Spot intensity, detected using anti-N-terminus VDAC1” value was “+”. Same read-out and setting: the result for PYQLTWGRPSTRIQQQLGQLTLENL [2F24] reads “+++”; that for “YKGGTSREGGQTAPASTRLFQVRAN [2I15, array peptide from gelsolin isoform b]”, “+”. Same read-out and setting: the result for QGCLASVGVLTQSCTTPHLHSILKA [2F13] reads “++”; that for “VGKVIPELNGKLTGMAFRVPTANVS [2C14, array peptide from GAPDH1]”, “+++”.

On to “TVPTPHLDGKHVVFGQVIKGIGVAR [1I7, array peptide from cyclophilin D]”, for which the “Spot intensity, detected using anti-N-terminus VDAC1” value was “+”. Turning to “IEIESFYEGEDFSETLTRAKFEELN [2L4, array peptide from BiP1]”, the “Spot intensity, detected using anti-N-terminus VDAC1” value was “+” and the “Spot intensity, detected using anti-VDAC1 internal sequence” value is listed as “++”. As for “FDGALNVDLTEFQTNLVPYPRIHFP [2A15, array peptide from tubulin alpha 1b]”, the “Spot intensity, detected using anti-VDAC1 internal sequence” value is listed as “++”. On to “TPVQSRVVQGKEPAHLMSLFGGKPM [2I12, array peptide from gelsolin isoform b]”, for which the “Spot intensity, detected using anti-N-terminus VDAC1” value was “+”. As to “ERPLTKDNHLLGTFDLTGIPPAPRG [2L22, array peptide from BiP1]”, the “Spot intensity, detected using anti-N-terminus VDAC1” value is given as “++” and the “Spot intensity, detected using anti-VDAC1 internal sequence” value is on record as “+”.

For the sequence “PLAESITDVLVRTKRDWLVKQRGWD [2E12, array peptide from Mcl-1]”, the “Spot intensity, detected using anti-N-terminus VDAC1” value is “++”. Still for that read-out and setting: the result for “TPPPAEEEEDELYRQSLEIISRYLR [2D22, array peptide from Mcl-1]” reads “++”. As to “AIYDICRRNLDIERPTYTNLNRLIS [2A11, array peptide from tubulin alpha 1b]”, the “Spot intensity, detected using anti-N-terminus VDAC1” value is given as “+++” and the “Spot intensity, detected using anti-VDAC1 internal sequence” value is “+”. In the case of “SPPSTLTPDSRRVARPPPIGAEVPD [2D11, array peptide from Mcl-1]”, the “Spot intensity, detected using anti-N-terminus VDAC1” value was “+”.

In the case of “EQGVLSFWRGNLANVIRYFPTQALN [1F19, array peptide from ANT3]”, the “Spot intensity, detected using anti-N-terminus VDAC1” value is recorded as “+++” and the “Spot intensity, detected using anti-VDAC1 internal sequence” value is “+”. Turning to “TKVPELIRTIMGWTLDFLRERLLGW [1B10, array peptide from BAX]”, the “Spot intensity, detected using anti-N-terminus VDAC1” value was “+++”. “AVDTDSPREVFFRVAADMFSDGNFN [1B5, array peptide from BAX]”: the “Spot intensity, detected using anti-N-terminus VDAC1” value is listed as “+++”.

With “KVQRAVCMLSNTTAIAEAWARLDHK [2B5, array peptide from tubulin alpha 1b]”, the “Spot intensity, detected using anti-N-terminus VDAC1” value is recorded as “+”. As to “SPFRGRSRSAPPNLWAAQRYGRELR [1A11, array peptide from BAD]”, the “Spot intensity, detected using anti-N-terminus VDAC1” value was “+”. Turning to “MVVEHPEFLKAGKEPGLQIWRVEKF [2G8, array peptide from gelsolin isoform b]”, the “Spot intensity, detected using anti-N-terminus VDAC1” value is “+++”.

For the sequence “VDCIVRIPKEQGVLSFWRGNLANVI [1F18, array peptide from ANT3]”, the “Spot intensity, detected using anti-N-terminus VDAC1” value is recorded as “++”. Take “NMKLTRAQFEGIVTDLIRRTIAPCQ [2O9, array peptide from HSP-70]”: the “Spot intensity, detected using anti-N-terminus VDAC1” value is on record as “+” and the “Spot intensity, detected using anti-VDAC1 internal sequence” value was “++”. “KLQMGKKLPLHLTLPQALPQYAGSG [1N5, array peptide from CD4]”: the “Spot intensity, detected using anti-N-terminus VDAC1” value is given as “++”. Same read-out and setting: the result for “VGKSGTEREFRGLGDCLVKITKSDG [1G4, array peptide from ANT3]” reads “+++”. On to “GKEPAHLMSLFGGKPMIIYKGGTSR [2I13, array peptide from gelsolin isoform b]”, for which the “Spot intensity, detected using anti-N-terminus VDAC1” value is “+”. Turning to “KDFLAGGIAAAISKTAVAPIERVKL [1F13, array peptide from ANT3]”, the “Spot intensity, detected using anti-N-terminus VDAC1” value is listed as “++”. Same read-out and setting: the result for “FKDKYKQIFLGGVDKHTQFWRYFAG [1F22, array peptide from ANT3]” reads “+”. Take “VSSITASLRFDGALNVDLTEFQTNL [2A14, array peptide from tubulin alpha 1b]”: the “Spot intensity, detected using anti-N-terminus VDAC1” value is “+” and the “Spot intensity, detected using anti-VDAC1 internal sequence” value is “+++”. The matching figures for “SILEIQKGVFEVKSTNGDTFLGGED [2N23, array peptide from HSP-70]”: “+++” and “+++”. With MEVIRQVKGDLAFLNFQNNLQQTPL [2F6], the “Spot intensity, detected using anti-N-terminus VDAC1” value is on record as “+”.

As for “KTGPNLHGLFGRKTGQAPGYSYTAA [1D9, array peptide from cytochrome c]”, the “Spot intensity, detected using anti-N-terminus VDAC1” value is given as “+”.

For “AVIGGSAGASPPSTLTPDSRRVARP [2D10, array peptide from Mcl-1]”, the “Spot intensity, detected using anti-N-terminus VDAC1” value was “+”. Still for that read-out and setting: the result for “ITATQKTVDGPSGKLWRDGRGALQN [2C10, array peptide from GAPDH1]” reads “+”. As for “IEDFKAKKKELEEIVQPIISKLYGS [2M14, array peptide from BiP1]”, the “Spot intensity, detected using anti-N-terminus VDAC1” value is “++” and the “Spot intensity, detected using anti-VDAC1 internal sequence” value was “++”.

“HVAENPSIQLLEGNPGPPADPDGGP [1L14, array peptide from MAVS]”: the “Spot intensity, detected using anti-VDAC1 internal sequence” value is “+++”. In the case of “DQGGWGLPLAESLKRLMSLSPGRPP [1B13, array peptide from BAX]”, the “Spot intensity, detected using anti-N-terminus VDAC1” value is given as “+++” and the “Spot intensity, detected using anti-VDAC1 internal sequence” value is on record as “+”. “GGGPTSSEQIMKTGALLLQGFIQDR [1A21, array peptide from BAX]”: the “Spot intensity, detected using anti-N-terminus VDAC1” value is recorded as “+”. Still for that read-out and setting: the result for “FRGLGDCLVKITKSDGIRGLYQGFS [1G5, array peptide from ANT3]” reads “+++”; that for “GGVFTKLINRNTTIPTKKSQVFSTA [2O21, array peptide from HSP-70]”, “+”. Consider QLTLENLQMLPESEDEESYDTESEF [2G2], for which the “Spot intensity, detected using anti-VDAC1 internal sequence” value is listed as “++”. Take “EDFSETLTRAKFEELNMDLFRSTMK [2L5, array peptide from BiP1]”: the “Spot intensity, detected using anti-N-terminus VDAC1” value is “+”.

In the case of “YKSEGTFGIHVAENPSIQLLEGNPG [1L13, array peptide from MAVS]”, the “Spot intensity, detected using anti-VDAC1 internal sequence” value is listed as “++”. As to “LLGTFDLTGIPPAPRGVPQIEVTFE [2L23, array peptide from BiP1]”, the “Spot intensity, detected using anti-N-terminus VDAC1” value was “+++” and the “Spot intensity, detected using anti-VDAC1 internal sequence” value is “+”.

On to “LVFHSFGGGTGSGFTSLLMERLSVD [2A3, array peptide from tubulin alpha 1b]”, for which the “Spot intensity, detected using anti-N-terminus VDAC1” value is reported as “+++” and the “Spot intensity, detected using anti-VDAC1 internal sequence” value is “+”. On the same counts, the results for “TGSGFTSLLMERLSVDYGKKSKLEF [2A4, array peptide from tubulin alpha 1b]” are “+” and “+”.
